23 compounds from ChEMBL document CHEMBL1135855, “4-amidinobenzylamine-based inhibitors of urokinase” (Bioorg Med Chem Lett, 2002) can be followed below.

For assay [1], the target named is Prothrombin (Homo sapiens, UniProt P00734). Nature of the assay: In vitro inhibition of thrombin.
Assay [2] deals with Coagulation factor X (Homo sapiens, UniProt P00742). Nature of the assay: In vitro inhibition of Coagulation factor Xa.
Assay [3] deals with Plasminogen (Homo sapiens, UniProt P00747). In words: In vitro inhibition of Plasmin.
Assay [4] concerns the target Serine protease 1 (Homo sapiens, UniProt P07477). Nature of the assay: In vitro inhibition of trypsin.
Assay [5] has as its target T1, Urokinase-type plasminogen activator (Homo sapiens, UniProt P00749). Nature of the assay: In vitro inhibition of plasminogen activator urokinase.
Assay [6] deals with T1, Urokinase-type plasminogen activator.

One may read the Ki as the dissociation constant of the complex between target and ligand, obtained from inhibition or displacement. A low value points to tighter binding.

Chain of Serine protease 1 (P07477 whole entry): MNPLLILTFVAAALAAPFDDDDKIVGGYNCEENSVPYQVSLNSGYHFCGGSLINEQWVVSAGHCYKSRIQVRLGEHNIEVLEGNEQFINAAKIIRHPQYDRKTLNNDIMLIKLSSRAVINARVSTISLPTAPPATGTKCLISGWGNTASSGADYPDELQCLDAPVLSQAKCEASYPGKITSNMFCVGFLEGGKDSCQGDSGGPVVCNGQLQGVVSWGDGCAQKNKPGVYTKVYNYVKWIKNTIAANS
Chain of Plasminogen (P00747 97-580 limits assumed): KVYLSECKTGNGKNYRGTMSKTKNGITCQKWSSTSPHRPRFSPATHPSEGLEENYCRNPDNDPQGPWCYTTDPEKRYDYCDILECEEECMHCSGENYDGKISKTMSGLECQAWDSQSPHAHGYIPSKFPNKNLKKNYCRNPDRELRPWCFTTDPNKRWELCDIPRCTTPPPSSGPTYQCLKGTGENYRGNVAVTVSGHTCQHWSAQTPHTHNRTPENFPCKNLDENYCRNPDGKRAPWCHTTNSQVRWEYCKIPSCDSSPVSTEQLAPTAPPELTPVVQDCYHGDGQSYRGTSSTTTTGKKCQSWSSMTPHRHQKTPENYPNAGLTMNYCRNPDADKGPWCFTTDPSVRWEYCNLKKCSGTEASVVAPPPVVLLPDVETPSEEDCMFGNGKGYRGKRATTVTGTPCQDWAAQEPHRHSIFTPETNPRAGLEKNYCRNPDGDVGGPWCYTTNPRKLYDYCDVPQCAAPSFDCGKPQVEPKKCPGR
Chain of Plasminogen (P00747 581-810 limits assumed): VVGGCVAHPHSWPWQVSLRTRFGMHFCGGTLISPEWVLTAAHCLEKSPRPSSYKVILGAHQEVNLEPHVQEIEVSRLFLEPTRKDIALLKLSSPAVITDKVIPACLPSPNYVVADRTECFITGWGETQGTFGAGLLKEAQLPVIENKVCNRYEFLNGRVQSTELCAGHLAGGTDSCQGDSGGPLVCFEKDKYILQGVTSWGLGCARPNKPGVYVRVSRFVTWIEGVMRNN
Chain of Coagulation factor X (P00742 41-179 limits assumed): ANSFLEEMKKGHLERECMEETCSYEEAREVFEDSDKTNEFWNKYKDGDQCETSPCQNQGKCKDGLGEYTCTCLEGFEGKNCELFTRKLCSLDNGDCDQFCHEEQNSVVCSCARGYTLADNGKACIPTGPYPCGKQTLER
Chain of Coagulation factor X (P00742 235-488 limits assumed): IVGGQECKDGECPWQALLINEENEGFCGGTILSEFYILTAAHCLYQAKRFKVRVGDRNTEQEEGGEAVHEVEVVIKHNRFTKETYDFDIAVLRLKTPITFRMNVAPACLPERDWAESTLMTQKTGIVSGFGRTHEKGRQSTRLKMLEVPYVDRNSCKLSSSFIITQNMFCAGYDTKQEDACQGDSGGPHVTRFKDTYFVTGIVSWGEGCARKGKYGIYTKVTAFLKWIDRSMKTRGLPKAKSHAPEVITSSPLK

In the case of `N=C(N)c1ccc(CNC(=O)CNC(=O)[C@@H](CO)NS(=O)(=O)/C=C/c2ccccc2)cc1`, the Ki in assay [1] came to 15 µM; in assay [2], 15 µM; in assay [3] it was 140 µM; in assay [4], 1.7 µM; in assay [5], 2.2 µM.
In the case of `C[C@H](NC(=O)[C@@H](CO)NS(=O)(=O)Cc1ccccc1)C(=O)NCc1ccc(C(=N)N)cc1`, the inhibition constant Ki turned out to be 0.11 µM in assay [1], 2.1 µM in assay [2], 0.54 µM in assay [3] and 0.0033 µM in assay [4].
On to `N=C(N)c1ccc(CNC(=O)CNC(=O)[C@H](N)CO)cc1`, for which the Ki in assay [1] was 200 µM; in assay [2] it was more than 1000 µM; in assay [3] it was more than 1000 µM; in assay [4] it was 6.9 µM.
On to `N/C(=N\O)c1ccc(CNC(=O)CNC(=O)[C@@H](CO)NS(=O)(=O)Cc2ccccc2)cc1`, for which the inhibitory constant (Ki) in assay [1], in assay [2], in assay [3] and in assay [4] was more than 1000 µM each time.
Turning to `N=C(N)c1ccc(CNC(=O)CNS(=O)(=O)c2ccc3ccccc3c2)cc1`, the Ki in assay [1] turned out to be 16 µM; in assay [2] it was 10.6 µM; in assay [3], 43 µM; in assay [4], 0.65 µM.
For `CC(C)(C)OC(=O)N[C@@H](CO)C(=O)NCC(=O)NCc1ccc(C(=N)N)cc1`, in that order: 69 µM, 110 µM, 210 µM and 3.4 µM.
`N=C(N)c1ccc(CNC(=O)CNC(=O)[C@@H](N)CCC(=O)O)cc1`: the inhibitory constant (Ki) is more than 1000 µM in assay [1]; more than 1000 µM in assay [2]; more than 1000 µM in assay [3]; 5 µM in assay [4]; 22 µM in assay [5].
Regarding `CC(C)(C)OC(=O)NC(CCC(=O)O)C(=O)NCC(=O)NCc1ccc(C(=N)N)cc1` (stereo not drawn), the Ki is more than 1000 µM in assay [1]; more than 1000 µM in assay [2]; more than 1000 µM in assay [3]; 2.8 µM in assay [4]; 82 µM in assay [5].
In turn, `C[C@H](NC(=O)[C@@H](CO)NS(=O)(=O)CCc1ccccc1)C(=O)N[C@H]1CCCN(C(=N)N)C1O` (stereo partly drawn) gave a Ki in assay [6] of 3.1 µM.
In the case of `N=C(N)c1ccc(CNC(=O)CNC(=O)[C@@H](CO)NS(=O)(=O)c2ccc3ccccc3c2)cc1`, the Ki was 11 µM in assay [1]; 28 µM in assay [2]; 32 µM in assay [3]; 1.8 µM in assay [4]; 1.2 µM in assay [5].
As to `N=C(N)c1ccc(CNC(=O)CNC(=O)[C@@H](CO)NS(=O)(=O)CC2CCCCC2)cc1`, the inhibition constant (Ki) in assay [1] came out at 10 µM; in assay [2], 2 µM; in assay [3], 17 µM; in assay [4], 0.11 µM.
`N=C(N)c1ccc(CNC(=O)[C@H]2CCCN2C(=O)[C@@H](CO)NS(=O)(=O)Cc2ccccc2)cc1`: the Ki in assay [1] amounted to 0.012 µM; in assay [2], 2 µM; in assay [3], 0.15 µM; in assay [4], 0.0032 µM.
For `CC(C)COC(=O)OC[C@@H](NS(=O)(=O)Cc1ccccc1)C(=O)N[C@@H](C)C(=O)NCc1ccc(C(=N)N)cc1`, the Ki in assay [1] was 0.05 µM; in assay [2], 0.41 µM; in assay [3], 0.15 µM; in assay [4], 0.0048 µM; in assay [5], 0.043 µM.
Take `N=C(N)c1ccc(CNC(=O)CNC(=O)[C@@H](CO)NS(=O)(=O)Cc2ccccc2)cc1`: the inhibition constant Ki in assay [1] was 13 µM; in assay [2] it was 3 µM; in assay [4], 0.15 µM.
Turning to `CC(=O)N[C@H](CO)C(=O)NCC(=O)NCc1ccc(C(=N)N)cc1`, the inhibition constant Ki in assay [1] is more than 1000 µM; in assay [2], more than 1000 µM; in assay [3], more than 1000 µM; in assay [4], 14 µM.
For the compound `COC(=O)OC[C@@H](NS(=O)(=O)Cc1ccccc1)C(=O)NCC(=O)NCc1ccc(C(=N)N)cc1`, the Ki in assay [1] came to 3 µM; in assay [2], 0.34 µM; in assay [3] it was 10.9 µM; in assay [4], 0.064 µM.
`CC(NS(=O)(=O)c1ccc2ccccc2c1)C(=O)NCc1ccc(C(=N)N)cc1` (single isomer, unassigned; (-)) showed a Ki in assay [5] of 9.6 µM.
For the compound `N=C(N)c1ccc(CNC(=O)CNC(=O)[C@@H](N)CO)cc1`, the Ki in assay [1] was more than 1000 µM; in assay [2], more than 1000 µM; in assay [3], more than 1000 µM; in assay [4] it was 7 µM.
In the case of `CC(C)COC(=O)OC[C@@H](NS(=O)(=O)Cc1ccccc1)C(=O)NCC(=O)NCc1ccc(C(=N)N)cc1`, the inhibition constant (Ki) was 4 µM in assay [1], 2.4 µM in assay [3] and 0.12 µM in assay [4].
With `N=C(N)c1ccc(CNC(=O)CNC(=O)[C@@H](CO)NC(=O)OCc2ccccc2)cc1`, the inhibition constant (Ki) in assay [1] was 230 µM; in assay [2], 140 µM; in assay [3] it was 160 µM; in assay [4] it was 4.3 µM; in assay [5] it was 4 µM.
In the case of `CC(C)(C)OC(=O)N[C@H](CO)C(=O)NCC(=O)NCc1ccc(C(=N)N)cc1`, the Ki is 170 µM in assay [1]; 140 µM in assay [2]; more than 1000 µM in assay [3]; 4.5 µM in assay [4]; 9 µM in assay [5].
For `CC(C)c1cc(S(=O)(=O)N[C@H](CO)C(=O)NCC(=O)NCc2ccc(C(=N)N)cc2)cc(C(C)C)c1C(C)C`, in that order: 15 µM, 100 µM, 75 µM, 3.4 µM and 1.5 µM.
For `N=C(N)c1ccc(CNC(=O)CNC(=O)[C@@H](CO)NS(=O)(=O)CCc2ccccc2)cc1`, in that order: 33 µM, 28 µM, 59 µM, 0.9 µM and 0.49 µM.
